Source: patent US6603025B1, “Method of production of benzofuranone oximes” (Bayer Aktiengesellschaft, priority 1999, dated 2003)

Tests used:
log P = type: physicochemical
[1] = Table 1, benzofuranyl alkanoates prepared analogously to Example 3
[2] = table of benzofuranone oximes prepared analogously to Example 2
[3] = stated in text after the preparation example

Structure (SMILES) | logP (log P; [1]) | logP (log P; [2]) | melting point | also measured
COc1ccc2c(OC(C)=O)coc2c1 [Example 8] | 2.65 |  |  | 
CC(=O)Oc1coc2cc(C(F)(F)F)ccc12 [Example 6] | 3.38 |  | 27 °C | 
CO/N=C1\COc2ccccc21 [Example 1, O-methyl benzofuran oxime] |  |  |  | logP (log P; [3]): 2.38
O/N=C1\COc2ccccc21 [Example 2] |  |  |  | logP (log P; [3]): 1.44
CC(=O)Oc1coc2cc(C)ccc12 [Example 7] | 3.09 |  | 32 to 36 °C | 

Further lines, with some results ahead:

logP (log P; [1]) | logP (log P; [2]) | melting point | Structure (SMILES) | also measured
 | 1.52 |  | COc1ccc2c(c1)OC/C2=N\O [Example 13] | 
 | 2.38 | 150 °C (dec.) | O/N=C1\COc2cc(C(F)(F)F)ccc21 [Example 11] | 
 | 1.79 |  | Cc1ccc2c(c1)OC/C2=N\O [Example 12] | 
